Biological target: T1, ABP (amantadine-binding protein)
T1 construct: de novo designed homo-trimer; GSHMG//[…]
Experiment: X-ray crystal structure ([…] Å) and neutron structure ([…] Å) of the complex; NMR titration with TITAN line shape fitting (Kd)
Parameters: species or system synthetic construct

With `NC12CC3CC(CC(C3)C1)C2` [amantadine] the Kd was 24.1 ± 2.7 µM.

Reference: article PMC6922598, “De novo design of a homo-trimeric amantadine-binding protein” (eLife, 2019)
